Assay results: article doi:10.1101/2023.10.19.563029v1 (bioRxiv, 2023)
Where no end group is shown, it is not given here.

Legend:
intact GLP-1 = type: in vivo, male C57Bl/6JRj mice
[1] = In vivo disappearance of GLP-1; design: species or system male C57Bl6/JRj mice; details: 800 fmol i.v. tail vein; sitagliptin 10 mg/kg oral 30 min before; Alpco kit; n=5
[2] = In vivo disappearance of GLP-1; design: species or system male C57Bl6/JRj mice; details: 800 fmol into vena cava, n=4
[3] = estimated, after secretion; ref [2]; cited from earlier work
blood glucose = assay: Blood glucose during OGTT with in vivo enzyme inhibition; design: species or system male C57Bl/6JRj mice; details: valine pyrrolidide only, mean [95% CI], p=0.0023
[4] = in humans; background statement, no reference given; cited from earlier work

**Q.** Which “intact GLP-1 level after the OGTT, at 5 minutes” value (intact GLP-1; oral sitagliptin 10 mg/kg 30 min before OGTT, Alpco kit, mean ± SD, n=6, SD) does the source give for N[C@@H](CC(=O)N1CCn2c(nnc2C(F)(F)F)C1)Cc1cc(F)c(F)cc1F [sitagliptin, Sitagliptin] here?
**A.** 10.9 ± 3.9 pmol/L

**Q.** What does the source list for CC[C@H](C)[C@H](NC(=O)[C@H](Cc1ccccc1)NC(=O)[C@H](CCC(=O)O)NC(=O)[C@H](CCCCN)NC(=O)[C@H](C)NC(=O)[C@H](C)NC(=O)[C@H](CCC(N)=O)NC(=O)CNC(=O)[C@H](CCC(=O)O)NC(=O)[C@H](CC(C)C)NC(=O)[C@H](Cc1ccc(O)cc1)NC(=O)[C@H](CO)NC(=O)[C@H](CO)NC(=O)[C@@H](NC(=O)[C@H](CC(=O)O)NC(=O)[C@H](CO)NC(=O)[C@@H](NC(=O)[C@H](Cc1ccccc1)NC(=O)[C@@H](NC(=O)CNC(=O)[C@H](CCC(=O)O)NC(=O)[C@H](C)NC(=O)[C@@H](N)Cc1c[nH]cn1)[C@@H](C)O)[C@@H](C)O)C(C)C)C(=O)N[C@@H](C)C(=O)N[C@@H](Cc1c[nH]c2ccccc12)C(=O)N[C@@H](CC(C)C)C(=O)N[C@H](C(=O)N[C@@H](CCCCN)C(=O)NCC(=O)N[C@@H](CCCNC(=N)N)C(N)=O)C(C)C [GLP-1(7–36)NH2]?
**A.** calculated half-life, sitagliptin [1]: 1.53 min; half-life, control ([2]; isoflurane-sedated mice, no inhibitors): 0.79 min; half-life, sitagliptin ([2]; isoflurane-sedated mice, sitagliptin 30 min before): 1.35 min; initial peak plasma value, sitagliptin only ([2]; sitagliptin 30 min before): ~50 pmol/L; share of intact GLP-1 that reaches the systemic circulation [3]: 7-8%

**Q.** Which “intact GLP-1 level after the OGTT” value (intact GLP-1; i.p. valine pyrrolidide 15 mg/kg 30 min before OGTT, Alpco kit, mean ± SD, n=5, SD) does the source give for CC(C)[C@H](N)C(=O)N1CCCC1 [valine pyrrolidide] here?
**A.** 5.1 ± 0.9 pmol/L

**Q.** And the “intact GLP-1 level after the OGTT, at 10 minutes” value (intact GLP-1; oral valine pyrrolidide 20.6 mg/kg 30 min before OGTT, Alpco kit, mean ± SD, n=5, SD)?
**A.** 9.2 ± 6.3 pmol/L

**Q.** What about the “suppression in the rise of glucose at 20 minutes (difference versus control)” value (blood glucose) of the same compound?
**A.** -6.2 mmol/L

**Q.** With “GLP-1(9–36)NH2 (EGTFTSDVSSYLEGQAAKEFIAWLVKGR-NH2; UniProt P01275 100-127, looked up, fragment)” as the compound, how does the plasma half-life [4] read?
**A.** about 5 min

**Q.** Which “difference in AUC of intact GLP-1 versus control” value (intact GLP-1; sacubitril alone, oral 0.3 mg/kg, 30 min before OGTT, mean [95% CI], p>0.99, n=6) does the source give for CCOC(=O)[C@H](C)C[C@@H](Cc1ccc(-c2ccccc2)cc1)NC(=O)CCC(=O)O [sacubitril] here?
**A.** 4.0 pmol/L/min
